According to patent US20230013823A1, “INHIBITORS OF HUMAN IMMUNODEFICIENCY VIRUS REPLICATION” (VIV HEALTHCARE UK (No. 5) LIMITED, priority 2019, published 2023):

Legend:
[1] = Compound cytotoxicity, XTT-based colorimetric assay; assay type: cell-based; settings: human; uninfected MT2 cells, day 4, XTT
Experimental: Compound cytotoxicity and the corresponding CC50 values were determined using the same protocol as described in the antiviral assay except that uninfected cells were used. Cytotoxicity was assessed on day 4 in uninfected MT2 cells by using an XTT (2,3-bis[2-Methoxy-4-nitro-5-sulfophenyl]-2H-tetrazolium-5-carboxyanilide inner salt)-based colorimetric assay (Sigma-Aldrich, St Louis, Mo.).

[2] = system: recombinant NL4-3 virus (Renilla luciferase in nef); assay: HIV cell culture assay (antiviral activity, luciferase readout in MT-2 cells); assay type: cell-based; settings: Renilla, NL43
Experimental: HIV cell culture assay—MT=2 cells, 293T cells and the proviral DNA clone of NL4-3 virus were obtained from the NIH AIDS Research and Reference Reagent Program. MT=2 cells were propagated in RPMI 1640 media supplemented with 10% heat inactivated fetal bovine serum (FBS), […] penicillin G and up to 100 units/mL streptomycin. The 293T cells were propagated in DMEM media supplemented with 10% heat inactivated FBS, […] penicillin G and […] streptomycin. A recombinant NL4-3 proviral clone, in which a section of the nef gene was replaced with the Renilla luciferase gene, was used to make the reference virus used in these studies. The recombinant virus was prepared through transfection of the recombinant NL4-3 proviral clone into 293T cells using Transit-293 Transfection Reagent from Mirus Bio LLC (Madison, Wis.). Supernatent was harvested after 2-3 days and the amount of virus present was titered in MT=2 cells using luciferase enzyme activity as a marker by measuring luciferase enzyme activity. Luciferase was quantitated using the EnduRen Live Cell Substrate from Promega (Madison, Wis.). Antiviral activities of compounds toward the recombinant virus were quantified by measuring luciferase activity in MT=2 cells infected for 4-5 days with the recombinant virus in the presence of serial dilutions of the compound.
The 50% effective concentration (EC50) was calculated by using the exponential form of the median effect equation where (Fa)=1/[1+(ED50/drug conc.)m] (Johnson V A, Byington R T. Infectivity Assay. In Techniques in HIV Research. ed. Aldovini A, Walker B D. 71-76. New York: Stockton Press. 1990). The 50% inhibitory concentration (EC50) was calculated by using the exponential form of the median effect equation where percent inhibition=1/[1+(EC50/drug concentration)m], where m is a parameter that reflects the slope of the concentration-response curve.

## Cn1nc(NS(C)(=O)=O)c2c(Cl)ccc(-n3c([C@H](Cc4cc(F)cc(F)c4)NC(=O)Cn4nc(C(F)F)c5c4C(F)(F)[C@@H]4C[C@H]54)nc4cc(-c5ccnc(C(F)(F)F)n5)ccc4c3=O)c21 (atropisomer, axis not shown; (P)) [Example 27, N—((S)-1-((3P)-3-(4-chloro-1-methyl-3-(methylsulfonamido)-1H-indazol-7-yl)-4-oxo-7-(2-(trifluoromethyl)pyrimidin-4-yl)-3,4-dihydroquinazolin-2-yl)-2-(3,5-difluorophenyl)ethyl)-2-((3bS,4aR)-3-(difluoromethyl)-5,5-difluoro-3b,4,4a,5-tetrahydro-1H-cyclopropa[3,4]cyclopenta[1,2-c]pyrazol-1-yl)acetamide]
[1]
  CC50 at 4 days: > 100000 pM
[2]
  EC50: 66 pM

## Cn1nc(NS(C)(=O)=O)c2c(Cl)ccc(-n3c([C@H](Cc4cc(F)cc(F)c4)NC(=O)Cn4nc(C(F)F)c5c4C(F)(F)[C@@H]4C[C@H]54)nc4cc(-c5cccc(C(C)(F)F)n5)ccc4c3=O)c21 (atropisomer, axis not shown; (P)) [Example 28, N—((S)-1-((3P)-3-(4-chloro-1-methyl-3-(methylsulfonamido)-1H-indazol-7-yl)-7-(6-(1,1-difluoroethyl)pyridin-2-yl)-4-oxo-3,4-dihydroquinazolin-2-yl)-2-(3,5-difluorophenyl)ethyl)-2-((3bS,4aR)-3-(difluoromethyl)-5,5-difluoro-3b,4,4a,5-tetrahydro-1H-cyclopropa[3,4]cyclopenta[1,2-c]pyrazol-1-yl)acetamide]
[1]
  CC50 at 4 days: > 100000 pM
[2]
  EC50: 120 pM

## Cn1nc(NS(C)(=O)=O)c2c(Cl)ccc(-n3c([C@H](Cc4cc(F)cc(F)c4)NC(=O)Cn4nc(C(F)F)c5c4C(F)(F)[C@@H]4C[C@H]54)nc4cc(-c5ccn(CC(C)(C)C)n5)ccc4c3=O)c21 (atropisomer, axis not shown; (P)) [Example 29, N—((S)-1-((3P)-3-(4-chloro-1-methyl-3-(methylsulfonamido)-1H-indazol-7-yl)-7-(1-neopentyl-1H-pyrazol-3-yl)-4-oxo-3,4-dihydroquinazolin-2-yl)-2-(3,5-difluorophenyl)ethyl)-2-((3bS,4aR)-3-(difluoromethyl)-5,5-difluoro-3b,4,4a,5-tetrahydro-1H-cyclopropa[3,4]cyclopenta[1,2-c]pyrazol-1-yl)acetamide]
[1]
  CC50 at 4 days: > 500000 pM
[2]
  EC50: 210 pM

## Cn1nc(NS(C)(=O)=O)c2c(Cl)ccc(-n3c([C@H](Cc4cc(F)cc(F)c4)NC(=O)Cn4nc(C(F)F)c5c4C(F)(F)[C@@H]4C[C@H]54)nc4cc(-c5ccc(F)c(C(F)(F)F)n5)ccc4c3=O)c21 (atropisomer, axis not shown; (P)) [Example 30, N—((S)-1-((3P)-3-(4-chloro-1-methyl-3-(methylsulfonamido)-1H-indazol-7-yl)-7-(5-fluoro-6-(trifluoromethyl)pyridin-2-yl)-4-oxo-3,4-dihydroquinazolin-2-yl)-2-(3,5-difluorophenyl)ethyl)-2-((3bS,4aR)-3-(difluoromethyl)-5,5-difluoro-3b,4,4a,5-tetrahydro-1H-cyclopropa[3,4]cyclopenta[1,2-c]pyrazol-1-yl)acetamide]
[1]
  CC50 at 4 days: > 500000 pM
[2]
  EC50: 220 pM

## Cn1nc(NS(C)(=O)=O)c2c(Cl)ccc(-n3c([C@H](Cc4cc(F)cc(F)c4)NC(=O)Cn4nc(C(F)F)c5c4C(F)(F)[C@H]4C[C@@H]54)nc4cc(-c5ccn(CC6CC6)n5)ccc4c3=O)c21 (atropisomer, axis not shown; (P)) [Example 31, N—((S)-1-((3P)-3-(4-chloro-1-methyl-3-(methylsulfonamido)-1H-indazol-7-yl)-7-(1-(cyclopropylmethyl)-1H-pyrazol-3-yl)-4-oxo-3,4-dihydroquinazolin-2-yl)-2-(3,5-difluorophenyl)ethyl)-2-((3bS,4aR)-3-(difluoromethyl)-5,5-difluoro-3b,4,4a,5-tetrahydro-1H-cyclopropa[3,4]cyclopenta[1,2-c]pyrazol-1-yl)acetamide]
[1]
  CC50 at 4 days: > 500000 pM
[2]
  EC50: 110 pM
